Reference: US7723538B2, “Sulfonamides as L-CPT1 inhibitors” (Hoffmann-La Roche Inc., priority 2005, dated 2010)

biological target: T1, L-CPT1 (Homo sapiens, UniProt P50416); assay: CPT activity spectrophotometric assay with DTNB (Ellman's reagent), cell-free extracts of P. pastoris expressing CPT1; format: biochemical; settings: carnitine 500 μM, palmitoyl-CoA 80 μM, DTNB 300 μM, absorbance at 410 nm, pH 7.4; read-out: L-CPT1 inhibition IC50
T1 construct: made in house; host or cells: Pichia pastoris strain X-33 (pGAPZB/pGAPZA vector), crude cell-free extract
T1 sequence (P50416 1-773): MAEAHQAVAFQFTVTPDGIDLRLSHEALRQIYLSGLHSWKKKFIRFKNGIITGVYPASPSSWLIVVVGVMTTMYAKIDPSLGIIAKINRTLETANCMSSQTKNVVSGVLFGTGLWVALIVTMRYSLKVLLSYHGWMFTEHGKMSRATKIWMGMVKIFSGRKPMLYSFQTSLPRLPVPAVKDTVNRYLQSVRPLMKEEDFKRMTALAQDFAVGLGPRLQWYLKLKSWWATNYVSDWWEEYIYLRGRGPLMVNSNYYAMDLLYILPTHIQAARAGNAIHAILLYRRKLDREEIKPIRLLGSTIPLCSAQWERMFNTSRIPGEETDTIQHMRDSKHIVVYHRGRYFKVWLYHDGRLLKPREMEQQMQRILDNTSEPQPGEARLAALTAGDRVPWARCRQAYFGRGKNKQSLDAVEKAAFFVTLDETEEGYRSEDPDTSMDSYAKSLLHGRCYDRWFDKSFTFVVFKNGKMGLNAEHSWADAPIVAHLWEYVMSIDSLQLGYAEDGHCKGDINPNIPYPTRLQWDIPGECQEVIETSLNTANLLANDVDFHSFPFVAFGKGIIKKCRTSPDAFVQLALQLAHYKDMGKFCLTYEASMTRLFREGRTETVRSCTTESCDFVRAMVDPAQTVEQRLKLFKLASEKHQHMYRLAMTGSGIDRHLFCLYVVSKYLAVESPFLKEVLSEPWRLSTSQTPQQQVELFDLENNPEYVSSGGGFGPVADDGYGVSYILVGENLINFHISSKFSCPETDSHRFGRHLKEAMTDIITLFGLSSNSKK
Protocol: The following tests were carried out in order to determine the activity of the compounds of the present invention. Background information on the performed assays can be found in: Jackson et al., 1999, Biochem. J. 341, 483-489 and Jackson et al., 2000, J. Biol. Chem. 275, 19560-19566.
Human liver and muscle CPT1 cDNAs and rat CPT2 cDNA were subcloned in pGAPZB or pGAPZA, respectively. These plasmids were used to transform P. pastoris strain X-33 via electroporation after the preparation of electrocompetent cells. High copy number clones were selected where necessary using 0.5 or 1 mg/ml Zeocin. Cultures for activity measurements were induced for 16 h in YPD medium (1% yeast extract, 2% peptone, 2% glucose). Crude cell extracts were prepared by disrupting the cells with glass beads or French Press, depending on fermenter sizes. After centrifugation, the cell-free extracts were resuspended in cell breaking buffer (50 mM Tris, pH 7.4, 100 mM KCl, 1 mM EDTA) in the presence of a protease inhibitor cocktail, before aliquoting and freezing at −20° C.
CPT activity was measured using a spectrophotometric assay using 5,5′-dithio-bis-(2-nitrobenzoic acid) (DTNB) also called Ellman's reagent. The HS-CoA released on the formation of acylcarnitine from carnitine (500 μM) and palmitoyl-CoA (80 μM) reduced DTNB (300 μM) forming 5-mercapto-(2-nitrobenzoic acid) witch absorbed at 410 nm with a molar coefficient extinction of 13600 M^−1·cm^−1. The assay buffer contained 120 mM KCl, 25 mM Tris, pH 7.4, 1 mM EDTA. This assay was used for the identification of selective inhibitors of the liver CPT1 isoform versus the muscle CPT1 and CPT2 isoforms.

SMILES | IC50 [nM]
O=C(O)c1ccc(NC(=O)c2ccc(Cl)c(NS(=O)(=O)c3cccc(Cl)c3)c2)cc1 [Example 21, 4-[4-Chloro-3-(3-chloro-benzenesulfonylamino)-benzoylamino]-benzoic acid] | 153
O=C(O)c1ccc(NC(=O)c2cccc(NS(=O)(=O)c3ccc(Cl)c(Cl)c3)c2)cc1 [Example 5, 4-[3-(3,4-Dichloro-benzenesulfonylamino)-benzoylamino]-benzoic acid] | 192
COc1cc(C(=O)Nc2ccc(C(=O)O)cc2)cc(NS(=O)(=O)c2cc(Cl)cc(Cl)c2)c1OC [Example 32, 4-[3-(3,5-Dichloro-benzenesulfonylamino)-4,5-dimethoxy-benzoylamino]-benzoic acid] | 881
